Columns and labels:
[1] = Table 1 characteristics, from references; cited from earlier work
[2] = test system: SIV-specific CD8+ T cell responses; assay: IFNγ ELISPOT of epitope-specific CD8+ T cell responses in DNA-immunized / SIV-infected macaques; assay type: in vivo, rhesus macaques; conditions: for Epitope-specific responses, Group A monkeys, 2 weeks post-SIV infection / Epitope-specific responses, Group A monkeys, Post-immunization, Pre-infection / Epitope-specific responses, Group C monkeys, 2 weeks post-SIV infection: ELISPOT; for Epitope-specific responses, Group A monkeys, 2 weeks post-SIV infection / Epitope-specific responses, Group A monkeys, Post-immunization, Pre-infection: Mamu-A*01 positive macaques immunized before and after infection; for Epitope-specific responses, Group A monkeys, Post-immunization, Pre-infection: after DNA immunization, before SIV infection; for Epitope-specific responses, Group C monkeys, 2 weeks post-SIV infection: Mamu-A*01 positive macaques immunized only after infection; for CD8+ T cell response against peptide after DNA immunization: Group A monkeys, ELISPOT after 1st-4th DNA immunization
Experimental: Each monkey received a total of 4 immunizations consisting of 32.0 μg DNA (3.2 μg of each DNA vector) per immunization spaced 4-8 weeks apart. The epitope specificity of the CD8+ T cell responses was determined by ELISPOT following the 1st, 2nd, 3rd or 4th DNA immunization.
ELISPOTs were performed essentially as described (Roy et al. 2000). Briefly, antibody pairs against rhesus monkey IFNγ (Cytech-BV, Amsterdam, The Netherlands) were used to measure the number of r cells that secrete IFNγ. PBMC were cultured at 2 different dilutions in 96 well nitrocellulose filter plates (Millipore) previously coated with anti-cytokine mAbs. ^2 μg/ml of the appropriate MamuA*01 CTL peptide or pepset (Chiron) was then added.
CD8+ T cell responses were measured by ELISPOT. In A*01 positive monkeys, the average cumulative ELISPOT was determined at each timepoint by measuring responses following stimulation with 10 representative epitopes included in the vaccine. In A*01 negative monkeys, cumulative ELISPOT values were determined using gag and tat peptide pools.

MHC = conditions: Table 1 characteristics, from references; cited from earlier work
[3] = test system: SIV gag recombinant protein; assay: Proliferation analysis of PBMC; assay type: in vivo, rhesus macaques; conditions: proliferative responses to SIV gag
Experimental: At each time point PBMC were isolated from whole blood by density gradient centrifugation over Ficoll-Hypaque and resuspended in complete RPMI media containing 10% human serum (R10 medium). In 96-well flat bottom plates, 2×10^5 PBMC/well were incubated for 6 days with 0.2 μg/well protein in R10 media. PBMC were stimulated 10 μg/ml of SIV gag recombinant protein (Intracel). Sixteen hours before the end of the assay, each well was pulsed with 1 μCi ^3H-thymidine. Cells were harvested and the isotope incorporation measured by scintillation spectroscopy. All assays were performed in triplicates.
Proliferative responses to SIV gag were measured during combined PMPA+DNA vaccine therapy (weeks 0-28) and after discontinuation of therapy (weeks 30-46 to date).

SIV/DeltaB670 = assay: Plasma viral loads (real time PCR) after SIV challenge, PMPA + DNA vaccine immunotherapy

## RIQRGPGRAFVTIGK
[1]
  immunogenicity: epitopes, highly

## QVPSLQYLA [Vifl44-152QA9]
[2]
  Epitope-specific responses, Group A monkeys, 2 weeks post-SIV infection: +/+ (A + response = a minimum of 25 spot forming cells/1 × 10^6 PBMC was detected in at least 1 of the 8 monkeys per group)
  Epitope-specific responses, Group A monkeys, Post-immunization, Pre-infection: +/+ (A + response = a minimum of 25 spot forming cells/1 × 10^6 PBMC was detected in at least 1 of the 8 monkeys per group)
  Epitope-specific responses, Group C monkeys, 2 weeks post-SIV infection: NA/+ (A + response = a minimum of 25 spot forming cells/1 × 10^6 PBMC was detected in at least 1 of the 8 monkeys per group)
  CD8+ T cell response against peptide after DNA immunization: Significant responses

## LAPVPIPFA [Gag372-380LA9]
[2]
  Epitope-specific responses, Group A monkeys, 2 weeks post-SIV infection: +/+ (A + response = a minimum of 25 spot forming cells/1 × 10^6 PBMC was detected in at least 1 of the 8 monkeys per group)
  Epitope-specific responses, Group A monkeys, Post-immunization, Pre-infection: +/+ (A + response = a minimum of 25 spot forming cells/1 × 10^6 PBMC was detected in at least 1 of the 8 monkeys per group)
  CD8+ T cell response against peptide after DNA immunization: Significant responses

## ILKEPVHGVY
MHC
  binding affinity to MHC: CTL epitope, high
[1]
  immunogenicity: MHC, strong

## LLWKGEGAV
MHC
  binding affinity to MHC: CTL epitope, high
[1]
  immunogenicity: MHC, strong

## CAPPGYALL [Env235-243CL9]
[2]
  Epitope-specific responses, Group A monkeys, 2 weeks post-SIV infection: +/+ (A + response = a minimum of 25 spot forming cells/1 × 10^6 PBMC was detected in at least 1 of the 8 monkeys per group)
  Epitope-specific responses, Group A monkeys, Post-immunization, Pre-infection: +/+ (A + response = a minimum of 25 spot forming cells/1 × 10^6 PBMC was detected in at least 1 of the 8 monkeys per group)
  Epitope-specific responses, Group C monkeys, 2 weeks post-SIV infection: NA/+ (A + response = a minimum of 25 spot forming cells/1 × 10^6 PBMC was detected in at least 1 of the 8 monkeys per group)
  CD8+ T cell response against peptide after DNA immunization: Significant responses

## TVPWPNASL [Env622-630TL9]
[2]
  Epitope-specific responses, Group A monkeys, 2 weeks post-SIV infection: +/+ (A + response = a minimum of 25 spot forming cells/1 × 10^6 PBMC was detected in at least 1 of the 8 monkeys per group)
  Epitope-specific responses, Group A monkeys, Post-immunization, Pre-infection: +/+ (A + response = a minimum of 25 spot forming cells/1 × 10^6 PBMC was detected in at least 1 of the 8 monkeys per group)
  CD8+ T cell response against peptide after DNA immunization: Significant responses

## GSPAIFQYTM [Pol359-365GM10]
[2]
  Epitope-specific responses, Group A monkeys, 2 weeks post-SIV infection: +/+ (A + response = a minimum of 25 spot forming cells/1 × 10^6 PBMC was detected in at least 1 of the 8 monkeys per group)
  Epitope-specific responses, Group A monkeys, Post-immunization, Pre-infection: +/+ (A + response = a minimum of 25 spot forming cells/1 × 10^6 PBMC was detected in at least 1 of the 8 monkeys per group)
  CD8+ T cell response against peptide after DNA immunization: Significant responses

## C[C@H](Cn1cnc2c(N)ncnc21)OCP(=O)(O)O [Group E]
[3]; after discontinuing therapy, weeks 30-46
  Average Stimulation Index +/− SE post-therapy (wks 30-46): 1.4 +/− 0.2
[3]; combined PMPA + DNA vaccine therapy, weeks 0-28
  Average Stimulation Index +/− SE during therapy (wks 0-28): 1.8 +/− 0.5
SIV/DeltaB670; weeks 5-28, during therapy
  Geometric mean virus loads during therapy with DNA vaccines + PMPA (weeks 5-28): 7,192 no. of copies of viral RNA/ml plasma
SIV/DeltaB670; weeks 5-28, during therapy with DNA vaccines + PMPA
  Immunotherapeutic efficacy: number of monkeys maintaining virus loads at < 5000 viral RNA copies/ml plasma, during therapy (weeks 5-28): 4/8
SIV/DeltaB670; weeks 30-46, after discontinuation
  Geometric mean virus loads after discontinuation of drug and vaccine therapy (weeks 30-46): 38,428 no. of copies of viral RNA/ml plasma
SIV/DeltaB670; weeks 30-46, after discontinuation of drug and vaccine therapy
  Immunotherapeutic efficacy: number of monkeys maintaining virus loads at < 5000 viral RNA copies/ml plasma, after discontinuation (weeks 30-46): 1/8

## FRKQNPDIVIYQYMDDLYVG
[1]
  immunogenicity: epitope, strong

## STPESANL [Tat28-35SL8]
[2]
  Epitope-specific responses, Group A monkeys, 2 weeks post-SIV infection: +/+ (A + response = a minimum of 25 spot forming cells/1 × 10^6 PBMC was detected in at least 1 of the 8 monkeys per group)
  Epitope-specific responses, Group A monkeys, Post-immunization, Pre-infection: +/+ (A + response = a minimum of 25 spot forming cells/1 × 10^6 PBMC was detected in at least 1 of the 8 monkeys per group)
  Epitope-specific responses, Group C monkeys, 2 weeks post-SIV infection: NA/+ (A + response = a minimum of 25 spot forming cells/1 × 10^6 PBMC was detected in at least 1 of the 8 monkeys per group)
  CD8+ T cell response against peptide after DNA immunization: Significant responses

## CTPYDINQM [Gag181-189CM9]
[2]
  Epitope-specific responses, Group A monkeys, 2 weeks post-SIV infection: +/+ (A + response = a minimum of 25 spot forming cells/1 × 10^6 PBMC was detected in at least 1 of the 8 monkeys per group)
  Epitope-specific responses, Group A monkeys, Post-immunization, Pre-infection: +/+ (A + response = a minimum of 25 spot forming cells/1 × 10^6 PBMC was detected in at least 1 of the 8 monkeys per group)
  Epitope-specific responses, Group C monkeys, 2 weeks post-SIV infection: NA/+ (A + response = a minimum of 25 spot forming cells/1 × 10^6 PBMC was detected in at least 1 of the 8 monkeys per group)
  CD8+ T cell response against peptide after DNA immunization: Significant responses

From US20030124718A1, “Vaccine composition” (priority 2001, published 2003)
